Experimental data from article PMC6271041, “Synthesis and Biological Evaluation of Novel 2-Arylalkylthio-5-iodine-6-substituted-benzyl-pyrimidine-4(3H)-ones as Potent HIV-1 Non-Nucleoside Reverse Transcriptase Inhibitors” (Molecules, 2014).

Key:
HIV-1 RT = molecular target: T1, HIV-1 RT (Human immunodeficiency virus type 1 group M subtype B, UniProt P04585); test: Inhibitory activity against HIV-1 RT (biotin-dUTP incorporation, colorimetric); type: biochemical; settings: for IC50: mean of three separate experiments, variation less than 15%
T1 construct: The biotin-dUTP was incorporated by reverse transcriptase (Sigma, St. Louis, MO, USA); purchased Sigma
Procedure: Oligo(dT) (TaKaRa Co., Otsu, Japan) was immobilized via its 5'-terminal phosphate to Covalink-NH microtiter plates (NUNC Co., Roskilde, Denmark). The biotin-dUTP was incorporated by reverse transcriptase (Sigma, St. Louis, MO, USA). Briefly, a serial concentration of inhibitor was added to the mixture, which contained 50 mmol/L Tris-HCl (pH 8.3), 3 mmol/L MgCl2, 75 mmol/L KCl, 5 mmol/L DTT, 0.13 mg/mL BSA, 10 μg/mL poly (A), 0.75 μM biotin-11-Dutp, 1.5 μM dTTP and HIV-1 RT. After incubation at 37 °C for 1h, washing buffer, which contained 50 mmol/L Tris-HCl (pH 7.5), 0.15 mol/L NaCl, 0.05 mmol/L MgCl2 and 0.02% Tween20, was used to wash the plate. Then each well of the plate was added […] 1% BSA and incubated at room temperature for another 30 min. The plate was washed with the same buffer for 3 times. Before further incubation at 37 °C for 1 h, 50 μL of alkaline phosphatase streptavidin (SA-ALP) solution (100 ng/mL) was added to each well and washed again as above. Finally, 50 μL of p-nitrophenyl phosphate, disodium (PNPP, 1 mg/mL, pH 9.5) was added and incubated at 37 °C for 30 min. 0.5 mol/L NaOH was added to stop the reaction and a colorimetric streptavidin-alkaline phosphatase reporter system was used to detect and quantify the result.

HIV-1SF33 = test: Inhibitory activity on HIV-1SF33 infection in TZM-bl cells (p24 ELISA); type: cell-based; settings: Human immunodeficiency virus 1, 168 h, read-out: EC50 /SF33, concentration inhibiting 50% viral replication, HIV-1SF33 infection in TZM-bl cell line, 7 days
Procedure: TZM-bl cells, HIV-1SF33 were obtained from the NIH AIDS Research and Reference Reagent Program (Germantown, MD, USA). The inhibitory activity of the compounds on infection by a laboratory-adapted HIV-1 strain SF33 was tested in TZM-bl cells. Briefly, TZM-bl cells (4 × 10^4/well) were infected by addition of 200 TCID50 of HIV-1, followed by incubation for 2 h at 37 °C before addition of compounds at serial dilutions.

Structure (SMILES) | fold more active compared to nevirapine (HIV-1 RT IC50) (HIV-1 RT) | IC50 (HIV-1 RT) [nM] | melting point [°C] | EC50 (HIV-1SF33) [nM]
CC(=O)c1ccc(CSc2nc(Cc3cc(C)cc(C)c3)c(I)c(=O)[nH]2)cc1 [8h, 2-(4-Acetylbenzylthio)-5-iodine-6-(3,5-Dimethylbenzyl)uracil] | about 10 fold | 410 | 201 to 203 | 1060
Cc1cc(C)cc(Cc2cc(=O)[nH]c(SCCOc3ccc([N+](=O)[O-])cc3)n2)c1 [7q, 2-(2-(4-Nitrophenoxy)ethylthio)-6-(3,5-dimethylbenzyl)uracil] |  | 590 | 210 to 214 | 5070
O=c1[nH]c(SCCOc2ccc([N+](=O)[O-])cc2)nc(Cc2cc(F)cc(F)c2)c1I [8r, 2-(2-(4-Nitrophenoxy)ethylthio)-5-Iodine-6-(3,5-difluorobenzyl)uracil] |  | 2560 | 224 to 226 | 4100
Cc1cc(C)cc(Cc2nc(SCCc3ccc([N+](=O)[O-])cc3)[nH]c(=O)c2I)c1 [8n, 2-(4-Nitrophenethylthio)-5-iodine-6-(3,5-dimethylbenzyl)uracil] | about 10 fold | 700 | 220 to 221 | 3840
Cc1cc(C)cc(Cc2cc(=O)[nH]c(SCCc3ccc([N+](=O)[O-])cc3)n2)c1 [7n, 2-(4-Nitrophenethylthio)-6-(3,5-dimethylbenzyl)uracil] |  | 1400 | 212 to 215 | 6120
Cc1cc(C)cc(Cc2nc(SCCOc3ccc([N+](=O)[O-])cc3)[nH]c(=O)c2I)c1 [8q] |  | 1310 | 215 to 218 | 9440
Cc1ccnc2c1NC(=O)c1cccnc1N2C1CC1 [nevirapine, reference compound] |  |  |  | 190
